Several values for one entry are separate records, joined by “and”; a condition that tells them apart may be missing. Identical values can stand only once. Toxic doses and inconclusive results are not listed. Cut-off read from the data, not from the text of the source: active = T/C of 150% or more; inactive = T/C below 125%.
Test system: L1210 leukemia ip in BDF1 mice, survival T/C
Experiment: NCI In Vivo Anticancer Drug Screen. Data for tumor model L1210 Leukemia (intraperitoneal) in B6D2F1 (BDF1) mice
Details: endpoint: mean survival time, higher = longer survival
Procedure, shortened: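 Value reflects the ratio of survival in compound-treated mice to survival in vehicle-treated controls, with both groups carrying the same transplanted tumor.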

[1] = dose: 100.0 mg/kg/injection, schedule: Q01DX009 (ip), vehicle: saline with Tween-80
[2] = dose: 100.0 mg/kg/injection, schedule: Q04DX003 (ip), vehicle: Klucel (hydroxypropylcellulose) (HPC)
[3] = dose: 200.0 mg/kg/injection, schedule: Q01DX009 (ip), vehicle: saline with Tween-80
[4] = dose: 200.0 mg/kg/injection, schedule: Q04DX003 (ip), vehicle: Klucel (hydroxypropylcellulose) (HPC)
[5] = dose: 400.0 mg/kg/injection, schedule: Q01DX009 (ip), vehicle: saline with Tween-80
[6] = dose: 400.0 mg/kg/injection, schedule: Q04DX003 (ip), vehicle: Klucel (hydroxypropylcellulose) (HPC)
[7] = dose: 100.0 mg/kg/injection, schedule: Q01DX009 (ip), vehicle: Klucel (hydroxypropylcellulose) (HPC)
[8] = dose: 200.0 mg/kg/injection, schedule: Q01DX009 (ip), vehicle: Klucel (hydroxypropylcellulose) (HPC)
[9] = dose: 400.0 mg/kg/injection, schedule: Q01DX009 (ip), vehicle: Klucel (hydroxypropylcellulose) (HPC)
[10] = dose: 12.5 mg/kg/injection, schedule: Q04DX003 (ip), vehicle: saline
[11] = dose: 25.0 mg/kg/injection, schedule: Q04DX003 (ip), vehicle: saline
[12] = dose: 50.0 mg/kg/injection, schedule: Q04DX003 (ip), vehicle: saline
[13] = dose: 100.0 mg/kg/injection, schedule: Q04DX003 (ip), vehicle: saline
[14] = dose: 100.0 mg/kg/injection, schedule: Q01DX001 (ip), vehicle: saline
[15] = dose: 200.0 mg/kg/injection, schedule: Q01DX001 (ip), vehicle: saline
[16] = dose: 400.0 mg/kg/injection, schedule: Q01DX001 (ip), vehicle: saline
[17] = dose: 50.0 mg/kg/injection, schedule: Q01DX009 (ip), vehicle: saline
[18] = dose: 100.0 mg/kg/injection, schedule: Q01DX009 (ip), vehicle: saline
[19] = dose: 200.0 mg/kg/injection, schedule: Q01DX009 (ip), vehicle: saline
[20] = dose: 75.0 mg/kg/injection, schedule: Q04DX003 (ip), vehicle: saline
[21] = dose: 50.0 mg/kg/injection, schedule: Q01DX009 (ip), vehicle: Klucel (hydroxypropylcellulose) (HPC)

Measured: T/C

CC1=COC(C)(C2NC(C)CC(C)(C)N2)CC1 (stereo unspecified)
inactive: dose: 44.0 mg/kg/injection, schedule: Q01DX Z (ip), vehicle: methylcellulose (MC) 100 % of control | dose: 100.0 mg/kg/injection, schedule: Q01DX Z (ip), vehicle: methylcellulose (MC) 95 % of control

CC(C)(O)CCNc1ncnc2c1ncn2C1OC(CO)C(O)C1O (stereo unspecified)
inactive: dose: 25.0 mg/kg/injection, schedule: Q01DX005 (ip), vehicle: water 97 % of control and 104 % of control | dose: 50.0 mg/kg/injection, schedule: Q01DX005 (ip), vehicle: water 103 % of control and 110 % of control | dose: 100.0 mg/kg/injection, schedule: Q01DX005 (ip), vehicle: water 106 % of control and 109 % of control

O=[N+]([O-])c1cccc(-c2ccccc2)c1Br
inactive: [1] 94 % of control | [2] 93 % of control | [3] 93 % of control | [4] 96 % of control | [5] 94 % of control | [6] 94 % of control

CCCCCCCCCCCCCCCCCC(=O)N/N=C/C(C=C=C(C)C)(CC)CCCC (stereo unspecified)
inactive: [7] 101 % of control | [8] 96 % of control | [9] 96 % of control

COC1=CC(=O)C=CC1=O
inactive: dose: 1.5 mg/kg/injection, schedule: Q01DX009 (ip), vehicle: saline 90 % of control | dose: 3.0 mg/kg/injection, schedule: Q01DX009 (ip), vehicle: saline 88 % of control | dose: 6.0 mg/kg/injection, schedule: Q01DX009 (ip), vehicle: saline 90 % of control

CCOC(=O)NC1=C(NCCCl)C(=O)C(NC(=O)OCC)=C(NCCCl)C1=O
inactive: dose: 6.25 mg/kg/injection, schedule: Q04DX003 (ip), vehicle: saline 92 % of control | [10] 95 % of control | [11] 106 % of control | [12] 104 % of control | [13] 90 % of control

c1ccc(SCc2cccnc2)nc1
inactive: [14] 97 % of control | [15] 88 % of control | [16] 94 % of control

Cc1ccc(NN=Nc2ccccc2C#N)cc1
inactive: [17] 92 % of control | [18] 92 % of control | dose: 100.0 mg/kg/injection, schedule: Q04DX003 (ip), vehicle: acetone 110 % of control | [19] 88 % of control | dose: 200.0 mg/kg/injection, schedule: Q04DX003 (ip), vehicle: acetone 100 % of control | dose: 400.0 mg/kg/injection, schedule: Q04DX003 (ip), vehicle: acetone 103 % of control

CC(C)/C(=N\[N+](C)(C)C)c1ccccc1
inactive: dose: 18.8 mg/kg/injection, schedule: Q04DX003 (ip), vehicle: saline 97 % of control | dose: 37.5 mg/kg/injection, schedule: Q04DX003 (ip), vehicle: saline 100 % of control | dose: 75.0 mg/kg/injection, schedule: Q01DX001 (ip), vehicle: saline 103 % of control | [20] 100 % of control

COc1ccc(OC)c(N)c1
inactive: dose: 25.0 mg/kg/injection, schedule: Q01DX009 (ip), vehicle: Klucel (hydroxypropylcellulose) (HPC) 88 % of control | [21] 93 % of control | [7] 93 % of control

CS(=O)(=O)CCS(=O)(=O)c1cccs1
inactive: [21] 103 % of control | [7] 102 % of control | [2] 110 % of control | [4] 112 % of control | [6] 111 % of control

CC[C@H](CC[C@@H](C)[C@H]1CC[C@H]2[C@@H]3CC=C4C[C@@H](O)CC[C@]4(C)[C@H]3CC[C@]12C)C(C)C
inactive: dose: 12.5 mg/kg/injection, schedule: Q01DX001 (ip), vehicle: saline 93 % of control | [10] 98 % of control | dose: 25.0 mg/kg/injection, schedule: Q01DX001 (ip), vehicle: saline 94 % of control | [11] 105 % of control | dose: 50.0 mg/kg/injection, schedule: Q01DX001 (ip), vehicle: saline 88 % of control | [12] 98 % of control | [20] 89 % of control | [14] 89 % of control and 95 % of control | dose: 115.0 mg/kg/injection, schedule: Q04DX003 (ip), vehicle: saline 91 % of control | dose: 170.0 mg/kg/injection, schedule: Q04DX003 (ip), vehicle: saline 87 % of control | [15] 97 % of control | dose: 255.0 mg/kg/injection, schedule: Q04DX003 (ip), vehicle: saline with Tween-80 90 % of control | dose: 385.0 mg/kg/injection, schedule: Q04DX003 (ip), vehicle: saline with Tween-80 96 % of control | [16] 104 % of control and 107 % of control

Cc1ccc(S(=O)(=O)N/N=C\c2cccc([N+](=O)[O-])c2)cc1
inactive: [7] 103 % of control | [8] 98 % of control | [9] 93 % of control

C=C[P+](c1ccccc1)(c1ccccc1)c1ccccc1
inactive: dose: 0.78 mg/kg/injection, schedule: Q01DX009 (ip), vehicle: saline 124 % of control | dose: 1.56 mg/kg/injection, schedule: Q01DX009 (ip), vehicle: saline 104 % of control | dose: 1.56 mg/kg/injection, schedule: Q04DX003 (ip), vehicle: saline 108 % of control | dose: 3.12 mg/kg/injection, schedule: Q01DX009 (ip), vehicle: saline 93 % of control | dose: 3.12 mg/kg/injection, schedule: Q04DX003 (ip), vehicle: saline 112 % of control | dose: 5.0 mg/kg/injection, schedule: Q01DX001 (ip), vehicle: saline 115 % of control | dose: 8.88 mg/kg/injection, schedule: Q01DX001 (ip), vehicle: saline 102 % of control and 104 % of control | dose: 10.0 mg/kg/injection, schedule: Q01DX001 (ip), vehicle: saline 115 % of control | dose: 10.0 mg/kg/injection, schedule: Q04DX003 (ip), vehicle: saline 98 % of control | dose: 13.34 mg/kg/injection, schedule: Q01DX001 (ip), vehicle: saline 102 % of control and 104 % of control | dose: 20.0 mg/kg/injection, schedule: Q01DX001 (ip), vehicle: saline 102 % of control and 104 % of control | dose: 20.0 mg/kg/injection, schedule: Q04DX003 (ip), vehicle: saline 92 % of control | dose: 30.0 mg/kg/injection, schedule: Q01DX001 (ip), vehicle: saline 101 % of control and 105 % of control | dose: 40.0 mg/kg/injection, schedule: Q01DX001 (ip), vehicle: saline 97 % of control

O=C(O)CC(c1ccccc1)n1ccc(=O)[nH]c1=O (stereo unspecified)
inactive: dose: 25.0 mg/kg/injection, schedule: Q01DX001 (ip), vehicle: Klucel (hydroxypropylcellulose) (HPC) 103 % of control | dose: 50.0 mg/kg/injection, schedule: Q01DX001 (ip), vehicle: Klucel (hydroxypropylcellulose) (HPC) 106 % of control | dose: 100.0 mg/kg/injection, schedule: Q01DX001 (ip), vehicle: Klucel (hydroxypropylcellulose) (HPC) 101 % of control

O=C(O)C(Br)C(Br)c1ccccc1 (stereo unspecified)
inactive: dose: 100.0 mg/kg/injection, schedule: Q04DX003 (ip), vehicle: saline with Tween-80 101 % of control | dose: 200.0 mg/kg/injection, schedule: Q04DX003 (ip), vehicle: saline with Tween-80 106 % of control | dose: 400.0 mg/kg/injection, schedule: Q04DX003 (ip), vehicle: saline with Tween-80 96 % of control

O=C(Nc1ccccc1C(F)(F)F)OCCSc1ccc(Cl)cc1
inactive: [1] 95 % of control | [3] 95 % of control | [5] 93 % of control

CCOC(=O)CNC(=O)C(CSC(c1ccccc1)(c1ccccc1)c1ccccc1)NC(c1ccccc1)(c1ccccc1)c1ccccc1 (stereo unspecified)
inactive: [17] 89 % of control | [18] 103 % of control | [19] 92 % of control | dose: 400.0 mg/kg/injection, schedule: Q01DX009 (ip), vehicle: saline 94 % of control

O=C1OC(=O)C2C3C=CC(CC3)C12 (stereo unspecified)
inactive: [2] 96 % of control | [13] 98 % of control | [4] 100 % of control | dose: 200.0 mg/kg/injection, schedule: Q04DX003 (ip), vehicle: saline 98 % of control

Source: PubChem BioAssay AID248 (DTP/NCI, 2004)
